Literature values, collected in patent publication US20040006111A1, “Transmucosal delivery of proton pump inhibitors” (priority 2002, published 2004).

[1] = omeprazole buccal adhesive tablets (sodium alginate, HPMC, magnesium oxide, croscarmellose sodium), absorption through the buccal mucosa

- bioavailability (omeprazole buccal adhesive tablet formulation of Choi et al.): low
- peak plasma concentration [1]: 370 ng/mL
- time to generate peak plasma concentration [1]: 45 min
Structure (SMILES): COc1ccc2[nH]c([S+]([O-])Cc3ncc(C)c(OC)c3C)nc2c1 (stereo not drawn) [omeprazole]
